Results on nine compounds are retold here after patent US10399989B2, “Pyrazolopyrimidine derivatives as BTK inhibitors for the treatment of cancer” (Loxo Oncology, Inc., priority 2016, dated 2019).

Molecules are shown by their SMILES. Read-outs that look alike come from different tables or passages of the source.

One assay addresses BTK^C481S (Homo sapiens (Human), UniProt Q06187, C481S). Briefly: BTK^C481S binding affinity (TR-FRET, LanthaScreen). The conditions noted are these: 5 h incubation. Put shortly:
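Tracer-displacement TR-FRET: 5 nM recombinant kinase, 2 nM Eu anti-His antibody and 30 nM Kinase Tracer 236 incubated 5 h with varying inhibitor in Kinase Buffer A. Read at 340 nm excitation, 615/665 nm emission. IC50 from log[inhibitor]–response variable-slope fit.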

The subject of assay [1] is OCI-Ly10 human DLBCL cells. Briefly: OCI-Ly10 anti-proliferative activity (Resazurin, 72 h). It is filed as cell-based. The settings on record: read-out: Proliferation OCI-Ly10-IC50. Put shortly:
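Resazurin fluorescence (590 nm, 5 h dye incubation) read after 72 h compound exposure at 37 °C; NFκB-dependent cells seeded at 7.5×10^3/well in 2.5% FBS medium. Day 0 signal subtracted, values normalised to DMSO control; IC50 from log[inhibitor] vs response, variable-slope fit.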

In a further assay the target is BTK^WT (Homo sapiens (Human), UniProt Q06187). Briefly: BTK^WT binding affinity (TR-FRET, LanthaScreen). Put shortly: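 Tracer-displacement TR-FRET: 2.5 nM recombinant BTK, 2 nM Eu anti-His antibody and 15 nM Kinase Tracer 236 in Kinase Buffer A with inhibitor for 5 h. Emission read at 615/665 nm (excitation 340 nm); IC50 from variable-slope fit of log concentration vs response.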

Another assay addresses EGFR (Homo sapiens (Human), UniProt P00533). Briefly: EGFR binding affinity (TR-FRET, LanthaScreen). The settings on record: 5 h incubation. Put shortly: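 IC50 derived by variable-slope fit of TR-FRET signal (ex 340, em 615 and 665 nm) against inhibitor concentration. Mix contained recombinant GST-detected EGFR at 2.5 nM, Eu anti-GST antibody at 2 nM and Kinase Tracer 199 at 3 nM in Kinase Buffer A, 5 h incubation.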

Setting [2] is: TR-FRET binding, 5 h incubation, read-out: BTK^WT IC50.
The mark [3] stands for this setting: Table 6, numeric values, read-out: BTK Binding IC50.

Chain of BTK^WT (Q06187 whole entry): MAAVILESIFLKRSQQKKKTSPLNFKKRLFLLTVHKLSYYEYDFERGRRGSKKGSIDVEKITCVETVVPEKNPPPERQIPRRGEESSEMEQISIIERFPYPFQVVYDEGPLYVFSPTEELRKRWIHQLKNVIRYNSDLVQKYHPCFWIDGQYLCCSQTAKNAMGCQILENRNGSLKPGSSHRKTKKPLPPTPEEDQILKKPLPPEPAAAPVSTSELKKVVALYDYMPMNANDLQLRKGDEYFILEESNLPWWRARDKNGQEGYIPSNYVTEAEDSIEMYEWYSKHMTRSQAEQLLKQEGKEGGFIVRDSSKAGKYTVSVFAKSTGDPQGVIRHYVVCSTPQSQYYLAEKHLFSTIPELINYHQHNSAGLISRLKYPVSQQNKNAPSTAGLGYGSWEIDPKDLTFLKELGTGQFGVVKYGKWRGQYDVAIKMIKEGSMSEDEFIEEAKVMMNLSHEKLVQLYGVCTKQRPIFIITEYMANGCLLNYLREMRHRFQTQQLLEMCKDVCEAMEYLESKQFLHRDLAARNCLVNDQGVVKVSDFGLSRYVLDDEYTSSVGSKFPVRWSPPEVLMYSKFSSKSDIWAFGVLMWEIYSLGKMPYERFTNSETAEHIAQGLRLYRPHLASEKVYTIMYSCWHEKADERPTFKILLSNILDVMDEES
Chain of BTK^C481S (Q06187 whole entry C481S): as the sequence (Q06187 whole entry) above, with C481S counted along it
Chain of EGFR (P00533 25-1210): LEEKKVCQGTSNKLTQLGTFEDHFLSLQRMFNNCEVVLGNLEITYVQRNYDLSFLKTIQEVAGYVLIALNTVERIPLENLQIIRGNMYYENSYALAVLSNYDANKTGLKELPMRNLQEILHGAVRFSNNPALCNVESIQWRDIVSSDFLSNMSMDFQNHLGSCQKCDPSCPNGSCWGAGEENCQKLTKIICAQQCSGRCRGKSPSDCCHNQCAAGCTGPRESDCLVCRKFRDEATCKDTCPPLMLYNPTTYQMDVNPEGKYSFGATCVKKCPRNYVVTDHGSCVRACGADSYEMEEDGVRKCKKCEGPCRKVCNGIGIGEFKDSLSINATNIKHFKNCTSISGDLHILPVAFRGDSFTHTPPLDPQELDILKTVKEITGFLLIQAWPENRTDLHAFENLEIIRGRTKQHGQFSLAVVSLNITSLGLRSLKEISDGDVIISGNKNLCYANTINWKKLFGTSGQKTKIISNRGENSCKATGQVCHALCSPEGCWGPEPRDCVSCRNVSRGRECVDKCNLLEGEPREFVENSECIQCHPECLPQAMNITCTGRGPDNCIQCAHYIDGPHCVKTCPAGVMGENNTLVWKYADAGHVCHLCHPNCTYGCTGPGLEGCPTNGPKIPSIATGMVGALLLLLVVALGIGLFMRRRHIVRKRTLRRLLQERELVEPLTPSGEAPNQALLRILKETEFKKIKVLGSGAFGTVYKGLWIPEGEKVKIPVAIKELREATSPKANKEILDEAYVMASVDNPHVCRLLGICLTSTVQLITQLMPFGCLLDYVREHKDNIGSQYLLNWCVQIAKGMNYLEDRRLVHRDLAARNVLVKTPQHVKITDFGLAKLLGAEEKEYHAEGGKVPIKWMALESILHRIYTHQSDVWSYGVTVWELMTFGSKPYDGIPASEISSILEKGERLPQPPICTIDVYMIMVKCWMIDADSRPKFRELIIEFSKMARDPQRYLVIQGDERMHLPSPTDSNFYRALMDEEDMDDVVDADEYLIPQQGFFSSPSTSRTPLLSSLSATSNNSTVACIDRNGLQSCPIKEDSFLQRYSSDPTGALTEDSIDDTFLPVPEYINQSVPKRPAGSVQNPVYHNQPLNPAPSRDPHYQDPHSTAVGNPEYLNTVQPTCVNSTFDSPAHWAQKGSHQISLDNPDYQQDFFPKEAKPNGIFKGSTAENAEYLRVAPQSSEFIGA

For the compound `COc1ccccc1C(=O)NCc1ccc(-c2nn(C3CC4CC4C3)c3ncnc(N)c23)cc1` (stereo not drawn) [Example 52, N-[[4-[4-amino-1-(3-bicyclo[3.1.0]hexanyl)pyrazolo[3,4-d]pyrimidin-3-yl]phenyl]methyl]-2-methoxy-benzamide], the IC50 at BTK^C481S was at most 10 nM; in assay [1] (Homo sapiens, OCI-Ly10, 72 h) it was 10 to 100 nM; at BTK^WT (setting [2]), at most 10 nM; on EGFR, 10 to 100 nM.

For the compound `COc1ccccc1C(=O)NCc1ccc(-c2nn(C3CCCC(O)C3)c3ncnc(N)c23)cc1` (stereo not drawn) [Example 37, N-[[4-[4-amino-1-(3-hydroxycyclohexyl)pyrazolo[3,4-d]pyrimidin-3-yl]phenyl]methyl]-2-methoxy-benzamide], the IC50 is at most 10 nM at BTK^C481S; 100 to 1000 nM in assay [1] (Homo sapiens, OCI-Ly10, 72 h); at most 10 nM at BTK^WT (setting [2]); 1.7 nM at BTK^WT (setting [3]); 100 to 1000 nM on EGFR.

Take `COc1ccncc1C(=O)NCc1ccc(-c2nn(C3CCCC3)c3ncnc(N)c23)cc1` [Example 27, N-[[4-(4-amino-1-cyclopentyl-pyrazolo[3,4-d]pyrimidin-3-yl)phenyl]methyl]-4-methoxy-pyridine-3-carboxamide]: the IC50 at BTK^C481S lay in the range of 10 to 100 nM; in assay [1] (Homo sapiens, OCI-Ly10, 72 h), 100 to 1000 nM; on BTK^WT (setting [2]) it was 10 to 100 nM; on EGFR it was 100 to 1000 nM.

Consider `COc1ccc(C)cc1C(=O)NCc1ccc(-c2nn(C3CCCC3)c3ncnc(N)c23)cc1F` [Example 65, N-[[4-(4-amino-1-cyclopentyl-pyrazolo[3,4-d]pyrimidin-3-yl)-2-fluoro-phenyl]methyl]-2-methoxy-5-methyl-benzamide], for which the IC50 at BTK^C481S was at most 10 nM; in assay [1] (Homo sapiens, OCI-Ly10, 72 h) it was 100 to 1000 nM; at BTK^WT (setting [2]), at most 10 nM; on EGFR, 1000 to 10000 nM.

Take `COc1ccccc1C(=O)NCc1ccc(-c2nn(C3C=CCCC3)c3ncnc(N)c23)cc1` (stereo not drawn) [Example 49, N-[[4-(4-amino-1-cyclohex-2-en-1-yl-pyrazolo[3,4-d]pyrimidin-3-yl)phenyl]methyl]-2-methoxy-benzamide]: the IC50 is at most 10 nM at BTK^C481S; 10 to 100 nM in assay [1] (Homo sapiens, OCI-Ly10, 72 h); at most 10 nM on BTK^WT (setting [2]); 0.4 nM on BTK^WT (setting [3]); 10 to 100 nM at EGFR.

For the compound `COc1ccc(F)cc1C(=O)NCc1ccc(-c2nn(C3CCCC3)c3ncnc(N)c23)cc1` [Example 4, N-[[4-(4-Amino-1-cyclopentyl-pyrazolo[3,4-d]pyrimidin-3-yl)phenyl]methyl]-5-fluoro-2-methoxy-benzamide], the IC50 on BTK^C481S is at most 10 nM; in assay [1] (Homo sapiens, OCI-Ly10, 72 h) it was 10 to 100 nM; on BTK^WT (setting [2]) it was at most 10 nM; on BTK^WT (setting [3]) it was 0.8 nM; at EGFR, 100 to 1000 nM.

On to `CCOC(=O)C1CCC(n2nc(-c3ccc(CNC(=O)c4ccccc4OC)cc3)c3c(N)ncnc32)CC1` (stereo not drawn) [Example 32, ethyl 4-[4-amino-3-[4-[[(2-methoxybenzoyl)amino]methyl]phenyl]pyrazolo[3,4-d]pyrimidin-1-yl]cyclohexanecarboxylate], for which the IC50 is at most 10 nM on BTK^C481S; 10 to 100 nM in assay [1] (Homo sapiens, OCI-Ly10, 72 h); at most 10 nM on BTK^WT (setting [2]); 100 to 1000 nM at EGFR.

With `COc1ccccc1C(=O)NCc1ccc(-c2nn(C3CCC(C)(O)CC3)c3ncnc(N)c23)cc1` (single isomer, unassigned) [Example 92, N-[[4-[4-Amino-1-(4-hydroxy-4-methyl-cyclohexyl)pyrazolo[3,4-d]pyrimidin-3-yl]phenyl]methyl]-2-methoxy-benzamide], the IC50 is at most 10 nM at BTK^C481S, 10 to 100 nM in assay [1], at most 10 nM at BTK^WT (setting [2]) and 100 to 1000 nM at EGFR.

As to `COc1ccccc1C(=O)NCc1ccc(-c2nn(C3CCCC(=O)C3)c3ncnc(N)c23)cc1` (stereo not drawn) [Example 31, N-[[4-[4-amino-1-(3-oxocyclohexyl)pyrazolo[3,4-d]pyrimidin-3-yl]phenyl]methyl]-2-methoxy-benzamide], the IC50 is at most 10 nM at BTK^C481S; 10 to 100 nM in assay [1] (Homo sapiens, OCI-Ly10, 72 h); at most 10 nM at BTK^WT (setting [2]); 100 to 1000 nM on EGFR.
